Source: US7309484B2, “Compositions and methods for screening antibacterial compounds” (priority 2003, dated 2007)
Read-outs that look alike come from different tables or passages of the source. Bridge positions count the residues as written; N and C are the ends. Square brackets hold non-standard residues; d marks the D form. Peptide text beside a SMILES is read from it. * marks the point of attachment. Ileψ(thiazoline)Cys = CC[C@H](C)[C@H](N)C1=N[C@H](C(=O)*)CS1; dOrn = NCCC[C@@H](N)C(=O)O

What was measured:
Assay type in all cases: cell-based, Bacillus subtilis
[1] = test system: liaH expression (liaH::pMUTIN, strain BFS2469); experiment: Quantitative β-galactosidase assay, strain BFS2469; settings: bacitracin 100 μg/mL, 30 minutes
Experimental: Specifically, cultures of B. subtilis strain BFS2469 (liaH::pMUTIN) and BFS2470 (liaI::pMUTIN) were grown in LB medium to midlog phase, 2 mL for the un-induced control sample were harvested, and the remaining culture was induced with the three antibiotics for 30 minutes, before the cells of the induced sample were harvested. All samples were taken in duplicate from two independent cultures and the standard deviation is indicated by error bars.
Measurement of induction by β-galactosidase assays: Cells were inoculated from fresh overnight LB-plates and grown in LB-medium at 37° C. with aeration until they reached an O.D.600=0.45. 2 mL of cultures were harvested (un-induced control) and the cell pellets were shock frozen and kept at −70° C. The cultures were induced by addition of antibiotics to a final concentration of: bacitracin (100 μg/mL), tunicamycin (50 μg/mL) or vancomycin (2 μg/mL) and incubated for additional 30 min at 37° C. 2 mL of the cultures were harvested as described above (induced sample). The pellets were re-suspended in 1 mL of working buffer and assayed for β-galactosidase activity as described with normalization to cell density (Miller, 1972, the entire teaching of which is incorporated herein by reference).

[2] = test system: liaI expression (liaI::pMUTIN lacZ fusion, strain BFS2470; also liaH::pMUTIN, BFS2469); experiment: Disk-diffusion assay, blue ring on X-Gal plates; as to Disk-diffusion assay: key: −: no induction; +: induction of yvql expression
Source text: The pMUTIN-insertion results in a disruption of the targeted gene and generates a transcriptional fusion to lacZ thereby allowing detection of both antibiotic sensitivity (as defined by the zone of inhibition around the disk) and inducibility (by the formation of a blue ring at the edge of the zone of inhibition) (Cao et al., 2002, Mol Microbiol. 45: 1267-1276, the entire teaching of which is incorporated herein). The disruption of liaI and liaH had no effect on the sensitivity of the mutants to any of the antibiotics tested. […] Equivalent levels of induction were also observed with the PliaI-74-cat-lacZ fragment (in HB0950), albeit with lower fold-changes (See, Table 2). While the mode of action is different for these antibiotics, all four interfere with the lipid II cycle, essential for the biosynthesis of cell envelope polymers (Lazar et al., 2002, Curr. Opin. Chem. Biol. 6: 786-93).
PliaI induction assays: Screening for liaI induction was done by disk diffusion assay essentially as described (Cai, S. J., and M. Inouye, 2002, J Biol Chem 277:24155-61). B. subtilis strains were inoculated from a fresh overnight LB agar plate and grown to mid-log phase (OD600 ˜0.45) at 37 YC with shaking. 20 μl of the culture was mixed with 3 ml of 0.7% soft LB agar (containing 40 μg of X-Gal per plate) and poured onto the bottom agar. After cooling and drying of the plates (20 min at 37 YC), filter paper disks (6 mm diameter) carrying 5 μl of stock solution (antibiotics normally 100 mg/ml; lysozyme 10 mg/ml; tunicamycin, surfactants, uncouplers 5 mg/ml each; inhibitors of protein biosynthesis as given in the media and growth conditions section) were placed on top of the agar. The plates were incubated at 37 YC overnight. After 12-24 h incubation, the plates were scored for the appearance of a blue ring at or near the edge of the zone of growth inhibition produced by the diffusion of the antibiotics from the filter disk.

[3] = test system: B. subtilis liaH mutant HB0920 gene expression; experiment: microbe, parasite or virus in culture; settings: for fold induction at 100 µg/mL: Bacillus subtilis; for Fold induction 15 min / Fold induction 5 min: 100 μg/mL, listed as zinc-bacitracin
Source text: The bacitracin stimulon of B. subtilis was examined using global transcriptome analysis. […] Under most conditions tested, about 60-70 genes were induced greater than 5-fold. […] The scatter-plot represents the data sets obtained for strain HB0920 (yvqH was still detected as bacitracin-inducible due to the presence of a remaining region near the 5′-end of the gene). […] Members of the σ^M (white open squares) and σ^B (small black triangles) regulon are highlighted. All other gene signals are represented as small gray diamonds. Note that for the generation of this graphical display the data sets could not be filtered to remove low quality and non-reproducible signals, thus some of the background signals (small gray diamonds) that appear to represent highly regulated genes are not significant.
The liaH-deletion mutant was included in the analysis because the well-characterized LiaH-homologue in E. coli, PspA, functions as a repressor of transcription (Adams et al., 2003, J Bacteriol. 185: 1174-1180; Bordes et al., 2003, Proc Natl Acad Sci USA. 100: 2278-2283, the entire teachings of which are incorporated herein by reference). […] Similar results were obtained with CU1065.
For microarray analysis 100 mL of LB medium were inoculated from a fresh overnight LB-plate and incubated at 37° C. with aeration until the culture reached an O.D.600≈0.45, when the culture was split: 30 mL served as an un-induced control. To the remaining culture bacitracin was added to a final concentration of 100 μg/mL and 30 mL samples were taken 5 and 15 min after addition. The cells were harvested by centrifugation at room temperature and cell pellets were shock frozen and stored at −70° C. for at least 30 min. […] After extraction the RNA was purified using the RNA clean-up protocol of the RNeasy kit (Qiagen) with on-column DNase treatment in order to remove abundant small RNA molecules (tRNAs and 5S rRNA) and residual genomic DNA.
Each slide contains 9220 features corresponding to duplicate copies of each open reading frame, additional PCR products for some ORFs, rRNA genes, and other controls. RNA preparations were used to synthesize Cy3- and Cy5-labeled cDNA and hybridization was performed as described (Ye et al., 2000, J Bacteriol. 182: 4458-4465; Ye et al., 2001, J Microbiol Methods. 47: 257-272, the entire teaching of which are incorporated herein by reference). All comparisons were performed twice (once each with Cy3 and Cy5) to control for possible differences in labeling efficiency between fluorophores. Fluorescent signal intensity data was quantified using ArrayVision software (Molecular Dynamics) and normalized to the total detectable mRNA. Mean fluorescence intensity is set to 1.0 with a value of 0.1 corresponding to background. Each expression ratio is represented by at least four separate measurements (duplicate spots on each of two slides).

For `CC[C@H](C)[C@H](N)C1=N[C@H](C(=O)N[C@@H](CC(C)C)C(=O)N[C@H](CCC(=O)O)C(=O)N[C@H](C(=O)N[C@H]2CCCCNC(=O)[C@H](CC(N)=O)NC(=O)[C@@H](CC(=O)O)NC(=O)[C@H](Cc3cnc[nH]3)NC(=O)[C@@H](Cc3ccccc3)NC(=O)[C@H]([C@@H](C)CC)NC(=O)[C@@H](CCCN)NC2=O)[C@@H](C)CC)CS1` [Bacitracin] ({Ileψ(thiazoline)Cys}-L[dE]IK[dOrn]I[dF]H[dD]N; lactam 4-C), the “fold increase in liaH expression” value [1] was 90 fold, the disk-diffusion assay ([2]; qualitative screen of β-Galactosidase activity, blue ring at edge of zone of inhibition, LB plates with X-Gal, strain BFS2470) was “+” and the “induction of liaI / liaH expression, in words” value ([2]; strains BFS2469 and BFS2470) was “induced”. It also gave a fold induction at 100 µg/mL ([3]; 5 min, read-out: Fold induction 5 min, gene bcrC, 100 μg/mL, 5 min) of roughly 10, a fold induction at 100 µg/mL ([3]; 5 min, read-out: Fold induction 5 min, gene cadA (yvgW), 100 μg/mL, 5 min) of 58 and a fold induction at 100 µg/mL ([3]; 5 min, read-out: Fold induction 5 min, gene cotY, 100 μg/mL, 5 min) of 9.4. It also gave a fold induction at 100 µg/mL ([3]; 5 min, read-out: Fold induction 5 min, gene czcD, 100 μg/mL, 5 min) of 61, a fold induction at 100 µg/mL ([3]; 5 min, read-out: Fold induction 5 min, gene czcO (trkA), 100 μg/mL, 5 min) of 33 and a fold induction at 100 µg/mL ([3]; 5 min, read-out: Fold induction 5 min, gene ydhK, 100 μg/mL, 5 min) of 12. It also gave a fold induction at 100 µg/mL ([3]; 5 min, read-out: Fold induction 5 min, gene yetG, 100 μg/mL, 5 min) of 1.4, a fold induction at 100 µg/mL ([3]; 5 min, read-out: Fold induction 5 min, gene ykvS, 100 μg/mL, 5 min) of 5.9 and a fold induction at 100 µg/mL ([3]; 5 min, read-out: Fold induction 5 min, gene ytzB, 100 μg/mL, 5 min) of 2.8. For the same compound, the fold induction at 100 µg/mL ([3]; 5 min, read-out: Fold induction 5 min, gene yybR, 100 μg/mL, 5 min) was 5.4, the fold induction at 100 µg/mL ([3]; 5 min, read-out: Fold induction 5 min, gene(s) bacAB (ytsCD), 100 μg/mL, 5 min) was 280 and the fold induction at 100 µg/mL ([3]; 5 min, read-out: Fold induction 5 min, gene(s) gerAA/AB, 100 μg/mL, 5 min) was 7.1. It also gave a fold induction at 100 µg/mL ([3]; 5 min, read-out: Fold induction 5 min, gene(s) ycgRQ, 100 μg/mL, 5 min) of 6.7, a fold induction at 100 µg/mL ([3]; 5 min, read-out: Fold induction 5 min, gene(s) ygaCD, 100 μg/mL, 5 min) of 2 and a fold induction at 100 µg/mL ([3]; 5 min, read-out: Fold induction 5 min, gene(s) yhcYZ-yhdA, 100 μg/mL, 5 min) of 20. For the same compound, the fold induction at 100 µg/mL ([3]; 5 min, read-out: Fold induction 5 min, gene(s) yjbIH, 100 μg/mL, 5 min) was 5.2, the fold induction at 100 µg/mL ([3]; 5 min, read-out: Fold induction 5 min, gene(s) ykuNOP, 100 μg/mL, 5 min) was 1.4 and the fold induction at 100 µg/mL ([3]; 5 min, read-out: Fold induction 5 min, gene(s) ytrBCDEF, 100 μg/mL, 5 min) was 9.1. The fold induction at 100 µg/mL ([3]; 5 min, read-out: Fold induction 5 min, gene(s) yvcRS, 100 μg/mL, 5 min) was 12, the fold induction at 100 µg/mL ([3]; 5 min, read-out: Fold induction 5 min, gene(s) yvqGFEC, 100 μg/mL, 5 min) was 6 and the fold induction at 100 µg/mL ([3]; 5 min, read-out: Fold induction 5 min, gene(s) yvqIH, 100 μg/mL, 5 min) was 772. The fold induction at 100 µg/mL ([3]; 0.25 h, read-out: Fold induction 15 min, gene bcrC, 100 μg/mL, 15 min) was roughly 10, the fold induction at 100 µg/mL ([3]; 0.25 h, read-out: Fold induction 15 min, gene cadA (yvgW), 100 μg/mL, 15 min) was 9.8 and the fold induction at 100 µg/mL ([3]; 0.25 h, read-out: Fold induction 15 min, gene cotY, 100 μg/mL, 15 min) was 5.9. For the same compound, the fold induction at 100 µg/mL ([3]; 0.25 h, read-out: Fold induction 15 min, gene czcD, 100 μg/mL, 15 min) was 3.8, the fold induction at 100 µg/mL ([3]; 0.25 h, read-out: Fold induction 15 min, gene czcO (trkA), 100 μg/mL, 15 min) was 2.8 and the fold induction at 100 µg/mL ([3]; 0.25 h, read-out: Fold induction 15 min, gene ydhK, 100 μg/mL, 15 min) was 4.4. For the same compound, the fold induction at 100 µg/mL ([3]; 0.25 h, read-out: Fold induction 15 min, gene yetG, 100 μg/mL, 15 min) was 10, the fold induction at 100 µg/mL ([3]; 0.25 h, read-out: Fold induction 15 min, gene ykvS, 100 μg/mL, 15 min) was 10 and the fold induction at 100 µg/mL ([3]; 0.25 h, read-out: Fold induction 15 min, gene ytzB, 100 μg/mL, 15 min) was 11. For the same compound, the fold induction at 100 µg/mL ([3]; 0.25 h, read-out: Fold induction 15 min, gene yybR, 100 μg/mL, 15 min) was 3.7, the fold induction at 100 µg/mL ([3]; 0.25 h, read-out: Fold induction 15 min, gene(s) bacAB (ytsCD), 100 μg/mL, 15 min) was 360 and the fold induction at 100 µg/mL ([3]; 0.25 h, read-out: Fold induction 15 min, gene(s) gerAA/AB, 100 μg/mL, 15 min) was 4.2. It also gave a fold induction at 100 µg/mL ([3]; 0.25 h, read-out: Fold induction 15 min, gene(s) ycgRQ, 100 μg/mL, 15 min) of 7.9, a fold induction at 100 µg/mL ([3]; 0.25 h, read-out: Fold induction 15 min, gene(s) ygaCD, 100 μg/mL, 15 min) of 12 and a fold induction at 100 µg/mL ([3]; 0.25 h, read-out: Fold induction 15 min, gene(s) yhcYZ-yhdA, 100 μg/mL, 15 min) of 14. For the same compound, the fold induction at 100 µg/mL ([3]; 0.25 h, read-out: Fold induction 15 min, gene(s) yjbIH, 100 μg/mL, 15 min) was 7.1, the fold induction at 100 µg/mL ([3]; 0.25 h, read-out: Fold induction 15 min, gene(s) ykuNOP, 100 μg/mL, 15 min) was 12 and the fold induction at 100 µg/mL ([3]; 0.25 h, read-out: Fold induction 15 min, gene(s) ytrBCDEF, 100 μg/mL, 15 min) was 9.7. It also gave a fold induction at 100 µg/mL ([3]; 0.25 h, read-out: Fold induction 15 min, gene(s) yvcRS, 100 μg/mL, 15 min) of 24, a fold induction at 100 µg/mL ([3]; 0.25 h, read-out: Fold induction 15 min, gene(s) yvqGFEC, 100 μg/mL, 15 min) of 7 and a fold induction at 100 µg/mL ([3]; 0.25 h, read-out: Fold induction 15 min, gene(s) yvqIH, 100 μg/mL, 15 min) of 1060. The “Fold induction 15 min” value ([3]; gene bcrC) was 9.5 fold, the “Fold induction 5 min” value ([3]; gene(s) bacAB (ytsCD), 5 min) was 282 fold and the “Fold induction 15 min” value ([3]; gene(s) bacAB (ytsCD)) was 365 fold. The “Fold induction 5 min” value ([3]; gene(s) yhcYZ-yhdA, 5 min) was 21 fold, the “Fold induction 15 min” value ([3]; gene(s) yvcRS) was 25 fold and the “Fold induction 5 min” value ([3]; gene(s) yvqGFEC, 5 min) was 6.1 fold.
